Source: PubChem BioAssay (NCI)
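Assay format: 96-well plates, 48-hour exposure. The concentration for full growth arrest is given as TGI.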

Legend:
Test in all cases: NCI tumour cell line growth inhibition, 48 h
NCI-H23 lung = system: NCI-H23 lung
LOX IMVI melanoma = system: LOX IMVI melanoma
HL-60(TB) leukemia = system: HL-60(TB) leukemia
SK-OV-3 ovarian = system: SK-OV-3 ovarian
HCT-15 colon = system: HCT-15 colon
HOP-62 NSCLC = system: HOP-62 NSCLC
HCT-116 colon = system: HCT-116 colon
OVCAR-5 ovarian = system: OVCAR-5 ovarian
SNB-19 CNS = system: SNB-19 CNS
EKVX NSCLC = system: EKVX NSCLC
SF-268 CNS = system: SF-268 CNS
MOLT-4 leukemia = system: MOLT-4 leukemia
HCC-2998 colon = system: HCC-2998 colon
CCRF-CEM leukemia = system: CCRF-CEM leukemia
SK-MEL-5 melanoma = system: SK-MEL-5 melanoma
SW-620 colon = system: SW-620 colon
SNB-75 CNS = system: SNB-75 CNS
NCI-H460 lung = system: NCI-H460 lung
RXF 393 renal = system: RXF 393 renal
ACHN renal = system: ACHN renal

## CC(NC(=O)C(C)NC(=O)C(N)CCP(C)(=O)O)C(=O)O (stereo not drawn)
NCI-H23 lung
  TGI: > 100 µM
LOX IMVI melanoma
  TGI: > 100 µM
HL-60(TB) leukemia
  TGI: > 100 µM
SK-OV-3 ovarian
  TGI: > 100 µM
HCT-15 colon
  TGI: > 100 µM
HOP-62 NSCLC
  TGI: > 100 µM
HCT-116 colon
  TGI: > 100 µM
OVCAR-5 ovarian
  TGI: > 100 µM
SNB-19 CNS
  TGI: > 100 µM
EKVX NSCLC
  TGI: > 100 µM
SF-268 CNS
  TGI: > 100 µM
MOLT-4 leukemia
  TGI: > 100 µM
HCC-2998 colon
  TGI: > 100 µM
CCRF-CEM leukemia
  TGI: > 100 µM
SK-MEL-5 melanoma
  TGI: > 100 µM
SW-620 colon
  TGI: > 100 µM
SNB-75 CNS
  TGI: > 100 µM
NCI-H460 lung
  TGI: > 100 µM
RXF 393 renal
  TGI: > 100 µM

## Nc1nc(SCc2ccc([N+](=O)[O-])cc2)nc2c1ncn2C1OC(COP(=O)(O)O)C(O)C1O (stereo not drawn)
NCI-H23 lung
  TGI: > 100 µM
LOX IMVI melanoma
  TGI: > 100 µM
HL-60(TB) leukemia
  TGI: > 100 µM
SK-OV-3 ovarian
  TGI: > 100 µM
HCT-15 colon
  TGI: > 100 µM
ACHN renal
  TGI: > 100 µM
HOP-62 NSCLC
  TGI: > 100 µM
HCT-116 colon
  TGI: > 100 µM
OVCAR-5 ovarian
  TGI: > 100 µM
SNB-19 CNS
  TGI: > 100 µM
EKVX NSCLC
  TGI: > 100 µM
SF-268 CNS
  TGI: > 100 µM
MOLT-4 leukemia
  TGI: > 100 µM
HCC-2998 colon
  TGI: > 100 µM
CCRF-CEM leukemia
  TGI: > 100 µM
SK-MEL-5 melanoma
  TGI: > 100 µM
SW-620 colon
  TGI: > 100 µM
SNB-75 CNS
  TGI: > 100 µM
NCI-H460 lung
  TGI: > 100 µM
RXF 393 renal
  TGI: > 100 µM

## CC(C)OP(=O)(OC(C)C)/C(I)=N/Nc1ccc([N+](=O)[O-])cc1
NCI-H23 lung
  TGI: > 100 µM
HL-60(TB) leukemia
  TGI: > 100 µM
SK-OV-3 ovarian
  TGI: > 100 µM
HCT-15 colon
  TGI: > 100 µM
ACHN renal
  TGI: > 100 µM
HOP-62 NSCLC
  TGI: > 100 µM
HCT-116 colon
  TGI: > 100 µM
OVCAR-5 ovarian
  TGI: > 100 µM
SNB-19 CNS
  TGI: > 100 µM
EKVX NSCLC
  TGI: > 100 µM
SF-268 CNS
  TGI: > 100 µM
MOLT-4 leukemia
  TGI: > 100 µM
HCC-2998 colon
  TGI: > 100 µM
CCRF-CEM leukemia
  TGI: > 100 µM
SK-MEL-5 melanoma
  TGI: > 100 µM
SW-620 colon
  TGI: > 100 µM
SNB-75 CNS
  TGI: > 100 µM
NCI-H460 lung
  TGI: > 100 µM

## Cc1ccc(N=N/C(=N\NC(=O)c2ccc(C)cc2)c2ccc(N(CCC#N)CCC#N)cc2C)cc1
NCI-H23 lung
  TGI: > 100 µM
LOX IMVI melanoma
  TGI: > 100 µM
HL-60(TB) leukemia
  TGI: > 100 µM
SK-OV-3 ovarian
  TGI: > 100 µM
HCT-15 colon
  TGI: > 100 µM
ACHN renal
  TGI: > 100 µM
HOP-62 NSCLC
  TGI: > 100 µM
OVCAR-5 ovarian
  TGI: > 100 µM
SNB-19 CNS
  TGI: > 100 µM
EKVX NSCLC
  TGI: > 100 µM
SF-268 CNS
  TGI: > 100 µM
MOLT-4 leukemia
  TGI: > 100 µM
HCC-2998 colon
  TGI: > 100 µM
CCRF-CEM leukemia
  TGI: > 100 µM
SK-MEL-5 melanoma
  TGI: > 100 µM
SW-620 colon
  TGI: > 100 µM
SNB-75 CNS
  TGI: > 100 µM
NCI-H460 lung
  TGI: > 100 µM
RXF 393 renal
  TGI: > 100 µM

## Cc1ccc(N2Cc3c(ccc4ccccc34)OP2(=O)Oc2ccc(Cl)c(C)c2)cc1 (stereo not drawn)
NCI-H23 lung
  TGI: > 100 µM
LOX IMVI melanoma
  TGI: > 100 µM
HL-60(TB) leukemia
  TGI: > 100 µM
SK-OV-3 ovarian
  TGI: > 100 µM
HCT-15 colon
  TGI: > 100 µM
HOP-62 NSCLC
  TGI: > 100 µM
HCT-116 colon
  TGI: > 100 µM
OVCAR-5 ovarian
  TGI: > 100 µM
SNB-19 CNS
  TGI: > 100 µM
EKVX NSCLC
  TGI: > 100 µM
SF-268 CNS
  TGI: > 100 µM
MOLT-4 leukemia
  TGI: > 100 µM
HCC-2998 colon
  TGI: > 100 µM
CCRF-CEM leukemia
  TGI: > 100 µM
SK-MEL-5 melanoma
  TGI: > 100 µM
SW-620 colon
  TGI: > 100 µM
SNB-75 CNS
  TGI: > 100 µM
NCI-H460 lung
  TGI: > 100 µM
RXF 393 renal
  TGI: > 100 µM

## CC1=Nc2nc(Cl)cn2C(=O)C1(Cl)Cl
NCI-H23 lung
  TGI: > 10 µM
LOX IMVI melanoma
  TGI: > 10 µM
HL-60(TB) leukemia
  TGI: > 10 µM
SK-OV-3 ovarian
  TGI: > 10 µM
HCT-15 colon
  TGI: > 10 µM
ACHN renal
  TGI: > 10 µM
HOP-62 NSCLC
  TGI: > 10 µM
HCT-116 colon
  TGI: > 10 µM
OVCAR-5 ovarian
  TGI: > 10 µM
SNB-19 CNS
  TGI: > 10 µM
EKVX NSCLC
  TGI: > 10 µM
SF-268 CNS
  TGI: > 10 µM
MOLT-4 leukemia
  TGI: > 10 µM
HCC-2998 colon
  TGI: > 10 µM
CCRF-CEM leukemia
  TGI: > 10 µM
SK-MEL-5 melanoma
  TGI: > 10 µM
SW-620 colon
  TGI: > 10 µM
SNB-75 CNS
  TGI: > 10 µM
NCI-H460 lung
  TGI: > 10 µM
RXF 393 renal
  TGI: > 10 µM

## COc1ccc(-n2cnnc2-c2nsc3ccccc23)cc1
NCI-H23 lung
  TGI: > 100 µM
LOX IMVI melanoma
  TGI: > 100 µM
HL-60(TB) leukemia
  TGI: > 100 µM
HCT-15 colon
  TGI: > 100 µM
ACHN renal
  TGI: > 100 µM
HOP-62 NSCLC
  TGI: > 100 µM
HCT-116 colon
  TGI: > 100 µM
OVCAR-5 ovarian
  TGI: > 100 µM
SNB-19 CNS
  TGI: > 100 µM
EKVX NSCLC
  TGI: > 100 µM
SF-268 CNS
  TGI: > 100 µM
MOLT-4 leukemia
  TGI: > 100 µM
HCC-2998 colon
  TGI: > 100 µM
CCRF-CEM leukemia
  TGI: > 100 µM
SK-MEL-5 melanoma
  TGI: > 100 µM
SW-620 colon
  TGI: > 100 µM
SNB-75 CNS
  TGI: 59.2 µM
NCI-H460 lung
  TGI: > 100 µM
RXF 393 renal
  TGI: 65.8 µM

## C[Si](C)(OCCS(=O)(=O)O)C1(Cc2cccc3ccccc23)S(=O)(=O)OCCOS1(=O)=O
NCI-H23 lung
  TGI: 96 µM
LOX IMVI melanoma
  TGI: 34 µM
HL-60(TB) leukemia
  TGI: 51.8 µM
SK-OV-3 ovarian
  TGI: 35.6 µM
HCT-15 colon
  TGI: 52.1 µM
ACHN renal
  TGI: 51.9 µM
HOP-62 NSCLC
  TGI: 45 µM
HCT-116 colon
  TGI: 37.8 µM
OVCAR-5 ovarian
  TGI: 33.1 µM
SNB-19 CNS
  TGI: 42.9 µM
EKVX NSCLC
  TGI: 32.3 µM
SF-268 CNS
  TGI: 79.5 µM
MOLT-4 leukemia
  TGI: > 100 µM
HCC-2998 colon
  TGI: 30.7 µM
CCRF-CEM leukemia
  TGI: 45.9 µM
SK-MEL-5 melanoma
  TGI: 31.1 µM
SW-620 colon
  TGI: 33.7 µM
SNB-75 CNS
  TGI: 55.1 µM
NCI-H460 lung
  TGI: 41.1 µM
